The text below walks through data of paper PMC8433837, “(+)-Usnic Acid as a Promising Candidate for a Safe and Stable Topical Photoprotective Agent” (Molecules, 2021).

The test system of series [1] is HaCaT human skin keratinocytes. Put plainly: LDH viability test, HaCaT keratinocytes. Type of series: cell-based. On the procedure: (§1) Normal human skin keratinocytes (HaCaT), melanocytes (HEM), and fibroblasts (HDF) were grown at 37 °C in a 5% CO2 atmosphere, with relative humidity, on high-glucose DMEM (HaCaT, HDF), or melanocyte growth medium (HEM), supplemented with 10% fetal bovine serum (FBS) and antibiotics. Before the experiment, cells were seeded onto 96-well plates (1.5 × 10^4 cells/well) for 24 h. Then, the culture medium was replaced with the same medium, containing 2–100 µg/mL of the tested substances, and incubated for 24, 48, or 72 h. LDH release was measured as described previously. Briefly, a proper quantity of a reagent mixture was added to the cell supernatants, and after 30 min the absorbance was measured at 490 nm (the reference wavelength 600 nm) with a BioTek Synergy microplate reader (BioTek Instruments Inc., Winooski, VT, USA). Cytotoxicity was calculated as follows: ((Asample − Acontrol)/(Ama − Acontrol)) × 100; where Asample = the absorbance value for the cells incubated with the tested substances., Acontrol = the absorbance value for untreated, control cells (spontaneous LDH release), and Amax = the absorbance value in Triton-X100-lysed cells (maximum LDH release).
(§2) Each experiment was performed in triplicate, and the results were presented as mean ± SD.

Series [2] can be described thus: skin-PAMPA permeability assay. Type of series: in vitro ADME. The note with it: for Papp at 2 µg/mL: concentration 2 µg/mL; for Papp at 4 µg/mL: concentration 4 µg/mL. On the procedure: The skin-PAMPA (parallel artificial membrane permeability assay) method was used, as described previously, to determine the permeability of the tested usnic acid enantiomers. The model consists of a two-chamber PAMPA sandwich, with 96 wells each. Before the experiment, the top plate, with the lipid-impregnated skin-mimetic membrane, was hydrated overnight with the hydration solution (200 µL per well). The tested substances were added at concentrations of 2 and 4 µg/mL. Each experiment was repeated at least three times, using six replicates on each plate, and the results were presented as mean ± SD. The amount of permeated active compounds was determined by spectroscopic analysis (Multiskan GO microplate reader, Thermo Scientific MaxQ 4450, Waltham, MA, USA), with a wavelength of 290 nm. For the calibration curve, stock solutions in the range of 12.5–150 µg/mL were prepared.
The apparent permeability coefficients (Papp) were calculated using the following equation:(1) Papp=−ln(1−CA/Cequilibrium)/S×(1/VD+1/VA)×t where VD = donor volume, VA = acceptor volume, Cequilibrium = equilibrium concentration, Cequilibrium=CD×VD+CA×VA/VD+VA , CD = donor concentration, CA = acceptor concentration, S = membrane area, and t = incubation time (in seconds). Compounds with Papp < 1 × 10^−6 cm/s are classified as having low permeability, and those with Papp > 1 × 10^−6 cm/s as highly permeable compounds.

In series [3] the test system is dermal fibroblasts (HDF). As to the kind of experiment: LDH viability test, HDF fibroblasts. Type of series: cell-based. The note with it: Homo sapiens, Fibroblast, HDF fibroblasts (remaining cell lines). On the procedure: as §1, §2
The test system of series [4] is Human epidermal melanocytes (HEM). Put plainly: LDH viability test, HEM melanocytes. Type of series: cell-based. The note with it: Melanocyte, HEM melanocytes (remaining cell lines). On the procedure:
as §1, §2

On the set-up of series [5]: method as in PMID 24238180. The note with it: cited from earlier work.
Details of series [6]: method as in PMID 28704942. The settings on record: different test for the evaluation; cited from earlier work.
In series [7] the test system is human volunteers. On the set-up: method as in PMID 12468208. The settings on record: versus reference Nivea sun spray (SPF 5); cited from earlier work.
In series [8] the test system is HaCaT cells. The settings on record: cited from earlier work.
On the set-up of series [9]: method as in doi:10.1016/S1010-6030(98)00368-2. The settings on record: three-week exposure, 12 h/day natural sunlight + 12 h/day incubator with light source; cited from earlier work.
Series [10] relates to HEM cells. Set-up: method as in PMID 32092663. The note with it: cited from earlier work.
Series [11] relates to irradiated guinea pigs. On the set-up: method as in earlier work. The settings on record: cited from earlier work.
Series [12] relates to HDF cells. Set-up: method as in PMID 31282672. The note with it: cited from earlier work.
A short description of series [13]: Ultraviolet spectroscopy in ethanol solutions. The note with it: ethanol solution; for E1.1 (λmax): extinction at 1 cm path length and 1% concentration; for ‹E1.1mean›: mean specific extinction 290 to 400 nm. Type of series: physicochemical. On the procedure:
Spectra with a scan range of 250–400 nm were recorded in 30 µM ethanol solutions, in 1 cm path length, with 1.5 mL quartz cuvettes on a U-2800 double-beam spectrophotometer (Hitachi, Tokyo, Japan) controlled using UV Solution version 2.2 software. The molar extinction coefficient at maximum absorption (εmax) of the tested compounds was determined in ethanol as the slope of the linear regression of absorbance vs. the concentration of the tested compound (from 10 to 50 µM). The E1,1 coefficient was calculated using the formula: E1,1=ε[L/mol cm]× 10[g/L]/Mg/mol] × 1[cm] where ‹E1,1›mean value is a mean value of the specific extinction over the spectral range from 290 to 400 nm.

Series [14] deals with fibroblasts. Set-up: method as in PMID 28095330. The note with it: previous study; cited from earlier work.

Where two headings read alike, the source gives them in different places. Where only a bound is given, the exact number is not on record here.

On to `CC(=O)C1=C(O)C=C2Oc3c(C(C)=O)c(O)c(C)c(O)c3[C@]2(C)C1=O` [(−)-usnic acid], for which the IC50 (commonly the point on the concentration scale where inhibition reaches its midpoint) was 80.8 µg/mL in series [1] (48 h), 70.1 µg/mL in series [1] (72 h), more than 100 µg/mL in [3] and more than 100 µg/mL in [4]. Further, in [2], the Papp – broadly, a coefficient for how fast a substance crosses the barrier – at 2 µg/mL was 7.46 ± 1.12 ×10⁻⁶ cm/s. This compound displayed a Papp at 4 µg/mL in series [2] of 8.28 ± 1.33 ×10⁻⁶ cm/s.

Turning to dimethicodiethylbenzalmalonate, in series [5], the “E1,1 value” was ~ 150.

As for `CC(=O)c1c(O)c(C)c(O)c2c1OC1=CC(=O)C(C(C)=O)C(=O)C12C` (centres unmarked) [usnic acid, 2,6-diacetyl-7,9-dihydroxy-8,9b-dimethyl-1,3(2H,9bH)-dibenzofurandione], the “PF UVA” value in [6] is reported as 1.8. In addition, in [6], the SPF is listed as 3.9. Further, the “effectiveness in sun protection” value in [7] is recorded as “comparable to a reference Nivea sun spray”. For the same compound, the IC50 result was “about 64 µg/mL” in [8] (conversion of the µM value), 186 ± 4.8 µM in series [8] (read-out: IC50), “about 2.4 µg/mL” in [10] (conversion of the µM value) and 6.9 µM in series [10] (read-out: IC50). In series [9], the “stability of methanol solution exposed to light” value is listed as “wholly degraded”. In series [11], the “SPF as compared to the reference (homosalate)” value was “two times higher”.

As for `CC(=O)C1=C(O)C=C2Oc3c(C(C)=O)c(O)c(C)c(O)c3[C@@]2(C)C1=O` [(+)-usnic acid], in series [12] (conversion of > 10 µM), the IC50 entry is reported as “about 3.5 µg/mL”. Further, the IC50 in [12] (read-out: IC50) is more than 10 µM. Moreover, in series [13], the εmax is 21 120 M^−1 cm^−1, the λmax is given as 281 nm, the “E1.1 (λmax)” value was determined as 613 and the “‹E1.1mean›” value is on record as 76. In [2], the Papp at 2 µg/mL was 7.53 ± 1.25 ×10⁻⁶ cm/s and the Papp at 4 µg/mL stood at 7.9 ± 0.65 ×10⁻⁶ cm/s. Besides, in [14], the IC50 is on record as more than 40 µg/mL.

For `CCCCC(CC)COC(=O)C(C#N)=C(c1ccccc1)c1ccccc1` (centres unmarked) [octocrylene, 2-ethylhexyl 2-cyano-3,3-diphenylacrylate, reference compound], in series [13], the εmax is 13 650 M^−1 cm^−1, the λmax worked out at 302 nm, the “E1.1 (λmax)” value is given as 378 and the “‹E1.1mean›” value worked out at 141.
